≈ marks a conversion by molar mass, not a printed value.

What all share (assay type): functional
The test system of assay [1] is Staphylococcus aureus. Description: Antibacterial activity against rifamycin-sensitive Staphylococcus aureus CB190 ATCC 29213.
Assay [2] deals with Staphylococcus aureus. The assay is described as follows: Antibacterial activity against rifamycin-resistance Staphylococcus aureus CB370.
The subject of assay [3] is Staphylococcus aureus. Description: Antibacterial activity against rifamycin-resistance Staphylococcus aureus CB372.

A word on the MIC: it is the lowest concentration found to suppress growth. Higher therefore signals weaker potency. `CO[C@H]1/C=C/O[C@@]2(C)Oc3c(C)c(O)c4c(=O)c(c5oc6cc(N7CCN(CC8CCCCC8)CC7)ccc6nc-5c4c3/C2=N/O)NC(=O)/C(C)=C\C=C\[C@H](C)[C@H](O)[C@@H](C)[C@@H](O)[C@@H](C)[C@H](OC(C)=O)[C@@H]1C`: the minimum inhibitory concentration (MIC) in assay [1] is 8 ng/mL (≈ 0.00816 µM); in assay [2], 16 µg/mL (≈ 16.3 µM); in assay [3], 2 µg/mL (≈ 2.04 µM).

As to `CO[C@H]1/C=C/O[C@@]2(C)Oc3c(C)c(O)c4c(c3C2=O)C(=O)C=C(NC(=O)/C(C)=C\C=C\[C@H](C)[C@H](O)[C@@H](C)[C@@H](O)[C@@H](C)[C@H](OC(C)=O)[C@@H]1C)C4=O` [RIFAMYCIN S], the MIC was 16 ng/mL (≈ 0.023 µM) in assay [1], over 64 µg/mL in assay [2] and 4 µg/mL (≈ 5.75 µM) in assay [3].

Regarding `CCN1CCN(c2cc(O)c3nc4c5c6c7c(C)c(O)c5c(=O)c(c-4oc3c2)NC(=O)/C(C)=C\C=C\[C@H](C)[C@H](O)[C@@H](C)[C@@H](O)[C@@H](C)[C@H](OC(C)=O)[C@H](C)[C@@H](OC)/C=C/O[C@@](C)(O7)/C6=N\O)CC1`, the MIC came out at 8 ng/mL (≈ 0.00862 µM) in assay [1], 32 µg/mL (≈ 34.5 µM) in assay [2] and 2 µg/mL (≈ 2.16 µM) in assay [3].

For `CO[C@H]1/C=C/O[C@@]2(C)Oc3c(C)c(O)c4c(O)c(cc(O)c4c3C2=O)NC(=O)/C(C)=C\C=C\[C@H](C)[C@H](O)[C@@H](C)[C@@H](O)[C@@H](C)[C@H](OC(C)=O)[C@@H]1C` [RIFAMYCIN], the MIC in assay [1] is 16 ng/mL (≈ 0.0229 µM); in assay [2], over 64 µg/mL; in assay [3], 2 µg/mL (≈ 2.87 µM).

Regarding `CO[C@H]1/C=C/O[C@@]2(C)Oc3c(C)c(O)c4c(=O)c(c5oc6cc(N7CCN(C)CC7)cc(O)c6nc-5c4c3/C2=N/O)NC(=O)/C(C)=C\C=C\[C@H](C)[C@H](O)[C@@H](C)[C@@H](O)[C@@H](C)[C@H](OC(C)=O)[C@@H]1C`, the results for the MIC in assay [1], in assay [2] and in assay [3] were 4 ng/mL (≈ 0.00438 µM), 32 µg/mL (≈ 35 µM) and 1 µg/mL (≈ 1.09 µM), respectively.

For the compound `CO[C@H]1/C=C/O[C@@]2(C)Oc3c(C)c(O)c4c(O)c(c(/C=N/N5CCN(C)CC5)c(O)c4c3C2=O)NC(=O)/C(C)=C\C=C\[C@H](C)[C@H](O)[C@@H](C)[C@@H](O)[C@@H](C)[C@H](OC(C)=O)[C@@H]1C` [RIFAMPIN], the MIC is 8 ng/mL (≈ 0.00972 µM) in assay [1], over 64 µg/mL in assay [2] and 16 µg/mL (≈ 19.4 µM) in assay [3].

Regarding `CO[C@H]1/C=C/O[C@@]2(C)Oc3c(C)c(O)c4c(=O)c(c5oc6cc(N7CCN(C(C)C)CC7)cc(O)c6nc-5c4c3/C2=N/O)NC(=O)/C(C)=C\C=C\[C@H](C)[C@H](O)[C@@H](C)[C@@H](O)[C@@H](C)[C@H](OC(C)=O)[C@@H]1C`, the results for the MIC in assay [1], in assay [2] and in assay [3] were 8 ng/mL (≈ 0.00849 µM), 32 µg/mL (≈ 34 µM) and 1 µg/mL (≈ 1.06 µM), respectively.

Consider `CO[C@H]1/C=C/O[C@@]2(C)Oc3c(C)c(O)c4c(=O)c(c5oc6cc(N7CCN(CC(C)C)CC7)cc(O)c6nc-5c4c3/C2=N/O)NC(=O)/C(C)=C\C=C\[C@H](C)[C@H](O)[C@@H](C)[C@@H](O)[C@@H](C)[C@H](OC(C)=O)[C@@H]1C`, for which the minimal inhibitory concentration (MIC) in assay [1] amounted to 4 ng/mL (≈ 0.00418 µM); in assay [2] it was 32 µg/mL (≈ 33.5 µM); in assay [3], 2 µg/mL (≈ 2.09 µM).

For the compound `CO[C@H]1/C=C/O[C@@]2(C)Oc3c(C)c(O)c4c(=O)c(c5oc6cc(N7CCN(CC8CCN(C)CC8)CC7)cc(O)c6nc-5c4c3/C2=N/O)NC(=O)/C(C)=C\C=C\[C@H](C)[C@H](O)[C@@H](C)[C@@H](O)[C@@H](C)[C@H](OC(C)=O)[C@@H]1C`, the values for the MIC in assay [1], in assay [2] and in assay [3] were 130 ng/mL (≈ 0.129 µM), 32 µg/mL (≈ 31.6 µM) and 4 µg/mL (≈ 3.96 µM), respectively.

As for `CO[C@H]1/C=C/O[C@@]2(C)Oc3c(C)c(O)c4c(c3/C2=N/O)C(=O)C=C(NC(=O)/C(C)=C\C=C\[C@H](C)[C@H](O)[C@@H](C)[C@@H](O)[C@@H](C)[C@H](OC(C)=O)[C@@H]1C)C4=O`, the MIC was 2 ng/mL (≈ 0.00281 µM) in assay [1], 32 µg/mL (≈ 45 µM) in assay [2] and 0.5 µg/mL (≈ 0.703 µM) in assay [3].

As for `CO[C@H]1/C=C/O[C@@]2(C)Oc3c(C)c(O)c4c(=O)c(c5oc6cc(N7CCN(C)CC7)cc(C)c6nc-5c4c3/C2=N/O)NC(=O)/C(C)=C\C=C\[C@H](C)[C@H](O)[C@@H](C)[C@@H](O)[C@@H](C)[C@H](OC(C)=O)[C@@H]1C`, the MIC was 4 ng/mL (≈ 0.00439 µM) in assay [1], 16 µg/mL (≈ 17.5 µM) in assay [2] and 1 µg/mL (≈ 1.1 µM) in assay [3].

For `CO[C@H]1/C=C/O[C@@]2(C)Oc3c(C)c(O)c4c(=O)c(c5oc6cc(N7CCN(CC(C)C)CC7)cc(O)c6nc-5c4c3C2=O)NC(=O)/C(C)=C\C=C\[C@H](C)[C@H](O)[C@@H](C)[C@@H](O)[C@@H](C)[C@H](OC(C)=O)[C@@H]1C` [RIFALAZIL], the minimum inhibitory concentration (MIC) in assay [1] came to 4 ng/mL (≈ 0.00425 µM); in assay [2], 32 µg/mL (≈ 34 µM); in assay [3], 2 µg/mL (≈ 2.13 µM).

With `CO[C@H]1/C=C/O[C@@]2(C)Oc3c(C)c(O)c4c(=O)c(c5oc6cc(N7CCN(CC(C)C)CC7)cc(C)c6nc-5c4c3/C2=N/O)NC(=O)/C(C)=C\C=C\[C@H](C)[C@H](O)[C@@H](C)[C@@H](O)[C@@H](C)[C@H](OC(C)=O)[C@@H]1C`, the MIC in assay [1] is 8 ng/mL (≈ 0.00838 µM); in assay [2], over 64 µg/mL; in assay [3] it was 4 µg/mL (≈ 4.19 µM).

For `CO[C@H]1/C=C/O[C@@]2(C)Oc3c(C)c(O)c4c(=O)c(c5oc6cc(N7CCN(CC8CCCCC8)CC7)cc(O)c6nc-5c4c3/C2=N/O)NC(=O)/C(C)=C\C=C\[C@H](C)[C@H](O)[C@@H](C)[C@@H](O)[C@@H](C)[C@H](OC(C)=O)[C@@H]1C`, the results for the MIC in assay [1], in assay [2] and in assay [3] were 8 ng/mL (≈ 0.00803 µM), 8 µg/mL (≈ 8.03 µM) and 8 µg/mL (≈ 8.03 µM), respectively.

For `CCCCN1CCN(c2cc(O)c3nc4c5c6c7c(C)c(O)c5c(=O)c(c-4oc3c2)NC(=O)/C(C)=C\C=C\[C@H](C)[C@H](O)[C@@H](C)[C@@H](O)[C@@H](C)[C@H](OC(C)=O)[C@H](C)[C@@H](OC)/C=C/O[C@@](C)(O7)/C6=N\O)CC1`, the minimum inhibitory concentration (MIC) is 4 ng/mL (≈ 0.00418 µM) in assay [1], 16 µg/mL (≈ 16.7 µM) in assay [2] and 2 µg/mL (≈ 2.09 µM) in assay [3].

With `CO[C@H]1/C=C/O[C@@]2(C)Oc3c(C)c(O)c4c(=O)c(c5oc6cc(N7CCN(C(C)C)CC7)ccc6nc-5c4c3/C2=N/O)NC(=O)/C(C)=C\C=C\[C@H](C)[C@H](O)[C@@H](C)[C@@H](O)[C@@H](C)[C@H](OC(C)=O)[C@@H]1C`, the MIC in assay [1] worked out at 0.5 ng/mL (≈ 0.00054 µM); in assay [2] it was 8 µg/mL (≈ 8.64 µM); in assay [3], 0.12 µg/mL (≈ 0.13 µM).

In the case of `CO[C@H]1/C=C/O[C@@]2(C)Oc3c(C)c(O)c4c(=O)c(c5oc6cc(N7CCN(CC(C)C)CC7)ccc6nc-5c4c3/C2=N/O)NC(=O)/C(C)=C\C=C\[C@H](C)[C@H](O)[C@@H](C)[C@@H](O)[C@@H](C)[C@H](OC(C)=O)[C@@H]1C`, the minimal inhibitory concentration (MIC) in assay [1] was found to be 4 ng/mL (≈ 0.00425 µM); in assay [2] it was 8 µg/mL (≈ 8.51 µM); in assay [3] it was 0.5 µg/mL (≈ 0.532 µM).
